Test results reported in US8415469B2, “Compounds and methods for kinase modulation, and indications therefor” (Plexxikon Inc., priority 2005, dated 2013).

Tests used:
Assay type in all cases: biochemical
Fms = molecular target: T1, Fms (Homo sapiens, UniProt P07333); test: AlphaScreen kinase assay, Fms; details: read-out: IC50, activity toward kinase Fms
T1 construct: purchased Upstate Biotechnology
Text: (§1) AlphaScreen assay was used to screen additional kinases. The assay is similarly dependent on the phosphorylation of a peptide substrate. In this assay, an antibody that recognizes phosphorylated substrate is bound to an acceptor bead. The peptide substrate is attached to biotin, which binds to a donor head that contains streptavidin. Thus phosphorylated substrate is bound by antibody and streptavidin, bringing the donor and acceptor heads into close proximity when kinase is not inhibited. The donor produces singlet oxygen which results in emission from the acceptor when they are in close proximity. Conversely, when kinase is inhibited, the donor and acceptor beads are not associated and the emission from the acceptor is reduced.
(§2) AlphaScreen assays were done using compounds dissolved in DMSO to a concentration of 20 mM. The compounds were diluted accordingly to the desired final concentrations in each sample well, using 1:3 serial dilution for a total of 8 concentration points. Plates were prepared such that each kinase reaction is 20 μl in 1× kinase buffer, 5% DMSO and 10 μM ATP. After incubation of the kinase reaction for 1 hour at room temperature, 5 μl of donor beads in stop buffer (50 mM EDTA in 1× kinase buffer) was added, the sample was mixed and incubated for 20 minutes at room temperature before adding 5 μl of acceptor beads in stop buffer. The samples were incubated for 60 minutes at room temperature and the signal per well was read on AlphaQuest reader.

Btk = molecular target: T2, Btk (Homo sapiens, UniProt Q06187); test: Z'-Lyte FRET kinase assay (Invitrogen), Btk; details: read-out: IC50, activity toward kinase Btk
T2 construct: purchased Invitrogen (assay run by Invitrogen)

B-Raf = molecular target: T3, B-Raf (Homo sapiens, UniProt P15056); test: AlphaScreen kinase assay, B-Raf; details: read-out: IC50, activity toward kinase B-Raf
T3 construct: purchased Upstate Biotechnology

Fak = molecular target: T4, Fak (Homo sapiens, UniProt Q05397); test: AlphaScreen kinase assay, Fak; details: read-out: IC50, activity toward kinase Fak
T4 construct: P1358.pFastBacHtb FAK S411-Q686-X; His6 with pFastBacHTb leader (TEV site) (N); made in house; host or cells: Sf9 (baculovirus)
Text: as §1, §2

B-Raf V600E = molecular target: T5, B-Raf V600E (Homo sapiens, UniProt P15056, V600E); test: AlphaScreen kinase assay, B-Raf V600E; details: read-out: IC50, activity toward kinase B-Raf V600E
T5 construct: P4254. pFastBacBD-CDC37 BRAF D437-K722-X, V600E; His6 with pFastBac HT leader (TEV site) (N); made in house; host or cells: Sf9 (baculovirus; chaperone CDC37 co-expressed)

Kit = molecular target: T6, Kit (Homo sapiens, UniProt P10721); test: AlphaScreen kinase assay, Kit; details: read-out: IC50, activity toward kinase Kit
T6 construct: P1332.N6 BI PTP KIT M552-K948-X COD; His6 (N); made in house; host or cells: E. coli (PTP1B co-expressed)

Src = molecular target: T7, Src (Homo sapiens, UniProt P12931); test: AlphaScreen kinase assay, Src; details: read-out: IC50, activity toward kinase Src
T7 construct: P1144. pET-N6 BI-PTP SRC V86-L536-X; made in house

FGFR1 = molecular target: T8, FGFR1 (Homo sapiens, UniProt P11362, C488A/C584S); test: AlphaScreen kinase assay, FGFR1; details: read-out: IC50, activity toward kinase FGFR
T8 construct: P1351.pET N6 BI-PTP FGFR A458-E765-X C488A, C584S; made in house; host or cells: E. coli (PTP1B co-expressed)

c-Raf-1 = molecular target: T9, c-Raf-1 (Homo sapiens, UniProt P04049); test: AlphaScreen kinase assay, c-Raf-1; details: read-out: IC50, activity toward kinase c-Raf-1
T9 construct: purchased Upstate Biotechnology

Jnk1 = molecular target: T10, Jnk1 (Homo sapiens, UniProt P45983); test: AlphaScreen kinase assay, Jnk1; details: read-out: IC50, activity toward kinase Jnk1
T10 construct: purchased Upstate Biotechnology

Ret = molecular target: T11, Ret (Homo sapiens, UniProt P07949); test: AlphaScreen kinase assay, Ret; details: read-out: IC50, activity toward kinase Ret
T11 construct: P1378.pET-SF BI-PTP RET H661-R1012 HIS; made in house
T11 sequence (P07949 with tags, fused parts or gaps): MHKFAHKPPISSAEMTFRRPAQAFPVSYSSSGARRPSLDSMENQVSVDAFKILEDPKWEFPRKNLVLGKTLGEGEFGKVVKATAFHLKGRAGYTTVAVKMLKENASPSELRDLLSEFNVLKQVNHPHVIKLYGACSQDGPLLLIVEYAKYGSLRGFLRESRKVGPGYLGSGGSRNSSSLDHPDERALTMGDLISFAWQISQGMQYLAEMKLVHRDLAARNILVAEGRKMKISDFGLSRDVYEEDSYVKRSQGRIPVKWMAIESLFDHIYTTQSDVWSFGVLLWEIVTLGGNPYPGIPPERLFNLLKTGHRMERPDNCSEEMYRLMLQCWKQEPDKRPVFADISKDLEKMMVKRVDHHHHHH

Jnk3 = molecular target: T12, Jnk3 (Homo sapiens, UniProt P53779); test: AlphaScreen kinase assay, Jnk3; details: read-out: IC50, activity toward kinase Jnk3
T12 construct: purchased Upstate Biotechnology

Measured: IC50

T5 sequence (P15056 with tags, fused parts or gaps V600E): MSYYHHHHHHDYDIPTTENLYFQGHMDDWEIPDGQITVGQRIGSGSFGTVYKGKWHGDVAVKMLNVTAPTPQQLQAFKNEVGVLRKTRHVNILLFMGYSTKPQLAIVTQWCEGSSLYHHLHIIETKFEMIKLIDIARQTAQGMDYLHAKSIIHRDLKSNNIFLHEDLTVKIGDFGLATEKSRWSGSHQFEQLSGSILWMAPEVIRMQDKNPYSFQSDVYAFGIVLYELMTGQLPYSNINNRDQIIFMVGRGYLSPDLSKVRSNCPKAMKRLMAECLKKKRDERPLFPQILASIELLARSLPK
T4 sequence (Q05397 411-686): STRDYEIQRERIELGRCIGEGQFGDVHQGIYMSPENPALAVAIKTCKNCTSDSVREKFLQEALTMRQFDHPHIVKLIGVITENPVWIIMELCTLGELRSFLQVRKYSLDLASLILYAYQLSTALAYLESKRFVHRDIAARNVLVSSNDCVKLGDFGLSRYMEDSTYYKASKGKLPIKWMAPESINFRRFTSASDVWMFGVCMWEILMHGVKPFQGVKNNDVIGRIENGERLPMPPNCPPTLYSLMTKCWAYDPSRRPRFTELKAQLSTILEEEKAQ
T1 sequence (P07333 20-972): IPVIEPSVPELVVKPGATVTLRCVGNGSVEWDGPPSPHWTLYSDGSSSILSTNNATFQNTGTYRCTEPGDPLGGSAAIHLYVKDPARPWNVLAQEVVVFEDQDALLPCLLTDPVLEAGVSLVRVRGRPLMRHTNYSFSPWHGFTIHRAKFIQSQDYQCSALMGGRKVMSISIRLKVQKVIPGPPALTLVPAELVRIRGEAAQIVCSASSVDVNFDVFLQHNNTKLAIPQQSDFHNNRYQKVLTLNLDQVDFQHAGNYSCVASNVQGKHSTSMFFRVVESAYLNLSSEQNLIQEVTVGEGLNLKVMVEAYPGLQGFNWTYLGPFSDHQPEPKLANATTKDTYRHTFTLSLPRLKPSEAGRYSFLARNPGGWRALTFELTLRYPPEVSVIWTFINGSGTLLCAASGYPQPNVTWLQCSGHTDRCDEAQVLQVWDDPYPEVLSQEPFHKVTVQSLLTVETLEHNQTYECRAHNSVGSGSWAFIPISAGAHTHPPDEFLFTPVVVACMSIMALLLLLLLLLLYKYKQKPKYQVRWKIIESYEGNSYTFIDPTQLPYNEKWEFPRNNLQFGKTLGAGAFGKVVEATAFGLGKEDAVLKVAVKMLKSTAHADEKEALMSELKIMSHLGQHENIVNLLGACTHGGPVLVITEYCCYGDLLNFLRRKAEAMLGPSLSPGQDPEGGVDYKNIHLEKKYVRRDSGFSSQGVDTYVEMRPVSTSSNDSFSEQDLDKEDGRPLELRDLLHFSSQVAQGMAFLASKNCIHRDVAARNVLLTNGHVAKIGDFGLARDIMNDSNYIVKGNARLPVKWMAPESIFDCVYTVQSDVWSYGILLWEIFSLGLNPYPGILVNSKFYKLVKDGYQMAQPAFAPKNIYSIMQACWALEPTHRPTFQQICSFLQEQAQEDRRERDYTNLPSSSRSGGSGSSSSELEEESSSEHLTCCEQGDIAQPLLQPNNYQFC
T3 sequence (P15056 whole entry): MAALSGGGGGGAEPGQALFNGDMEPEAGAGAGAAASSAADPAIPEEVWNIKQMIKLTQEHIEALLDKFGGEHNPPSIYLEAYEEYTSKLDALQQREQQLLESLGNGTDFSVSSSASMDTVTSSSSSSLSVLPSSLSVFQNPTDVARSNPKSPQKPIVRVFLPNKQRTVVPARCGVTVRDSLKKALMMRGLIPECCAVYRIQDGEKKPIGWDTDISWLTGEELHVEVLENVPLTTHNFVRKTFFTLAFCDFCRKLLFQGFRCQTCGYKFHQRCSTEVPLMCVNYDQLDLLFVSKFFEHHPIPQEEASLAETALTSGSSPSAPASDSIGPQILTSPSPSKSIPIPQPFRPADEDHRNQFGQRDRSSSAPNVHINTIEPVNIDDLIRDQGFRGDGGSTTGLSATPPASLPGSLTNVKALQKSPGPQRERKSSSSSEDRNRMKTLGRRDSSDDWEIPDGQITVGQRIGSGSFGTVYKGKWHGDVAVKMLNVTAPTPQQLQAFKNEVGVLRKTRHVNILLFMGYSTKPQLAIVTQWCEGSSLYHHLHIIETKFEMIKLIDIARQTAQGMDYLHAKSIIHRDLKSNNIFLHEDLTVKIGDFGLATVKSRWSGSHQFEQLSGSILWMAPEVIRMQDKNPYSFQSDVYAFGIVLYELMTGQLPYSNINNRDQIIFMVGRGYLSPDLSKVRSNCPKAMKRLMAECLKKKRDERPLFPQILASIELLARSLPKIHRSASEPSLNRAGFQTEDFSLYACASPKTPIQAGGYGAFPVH
T2 sequence (Q06187 whole entry): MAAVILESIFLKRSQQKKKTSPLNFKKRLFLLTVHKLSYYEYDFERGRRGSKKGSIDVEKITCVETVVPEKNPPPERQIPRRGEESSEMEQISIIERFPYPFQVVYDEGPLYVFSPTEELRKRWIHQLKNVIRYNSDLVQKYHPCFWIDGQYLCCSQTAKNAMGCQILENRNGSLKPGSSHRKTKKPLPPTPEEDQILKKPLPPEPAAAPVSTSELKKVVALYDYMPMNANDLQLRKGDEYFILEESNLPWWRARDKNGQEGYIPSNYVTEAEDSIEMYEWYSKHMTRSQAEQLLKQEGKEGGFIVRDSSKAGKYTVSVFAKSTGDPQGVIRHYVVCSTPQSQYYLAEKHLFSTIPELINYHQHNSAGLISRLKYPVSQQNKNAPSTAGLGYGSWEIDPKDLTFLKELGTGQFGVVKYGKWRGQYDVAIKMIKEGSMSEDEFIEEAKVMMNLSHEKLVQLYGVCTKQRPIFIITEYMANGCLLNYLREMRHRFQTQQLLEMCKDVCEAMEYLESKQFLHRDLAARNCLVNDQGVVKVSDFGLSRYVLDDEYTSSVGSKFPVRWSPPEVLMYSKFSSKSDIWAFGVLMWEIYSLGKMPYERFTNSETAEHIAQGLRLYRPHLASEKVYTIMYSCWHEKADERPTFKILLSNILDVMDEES
T6 sequence (P10721 with tags, fused parts or gaps): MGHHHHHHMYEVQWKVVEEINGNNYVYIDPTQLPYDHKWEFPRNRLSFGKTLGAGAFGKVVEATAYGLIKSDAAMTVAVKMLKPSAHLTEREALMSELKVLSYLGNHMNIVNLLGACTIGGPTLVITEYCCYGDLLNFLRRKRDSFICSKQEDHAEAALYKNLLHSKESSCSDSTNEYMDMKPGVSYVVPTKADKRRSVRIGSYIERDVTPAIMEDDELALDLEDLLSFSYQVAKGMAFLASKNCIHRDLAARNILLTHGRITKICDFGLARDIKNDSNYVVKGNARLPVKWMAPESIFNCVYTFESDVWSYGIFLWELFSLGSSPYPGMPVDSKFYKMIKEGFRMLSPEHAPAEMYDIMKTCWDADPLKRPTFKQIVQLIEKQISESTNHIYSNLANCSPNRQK
T8 sequence (P11362 458-765 C488A/C584S): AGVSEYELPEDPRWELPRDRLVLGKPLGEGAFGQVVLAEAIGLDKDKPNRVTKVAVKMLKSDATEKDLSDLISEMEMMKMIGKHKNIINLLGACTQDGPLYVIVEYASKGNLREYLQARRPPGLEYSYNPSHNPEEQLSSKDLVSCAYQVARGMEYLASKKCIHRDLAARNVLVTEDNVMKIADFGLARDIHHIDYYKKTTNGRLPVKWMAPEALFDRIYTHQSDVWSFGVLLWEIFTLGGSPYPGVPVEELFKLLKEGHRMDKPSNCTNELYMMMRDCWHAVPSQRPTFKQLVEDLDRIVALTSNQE
T7 sequence (P12931 with tags, fused parts or gaps): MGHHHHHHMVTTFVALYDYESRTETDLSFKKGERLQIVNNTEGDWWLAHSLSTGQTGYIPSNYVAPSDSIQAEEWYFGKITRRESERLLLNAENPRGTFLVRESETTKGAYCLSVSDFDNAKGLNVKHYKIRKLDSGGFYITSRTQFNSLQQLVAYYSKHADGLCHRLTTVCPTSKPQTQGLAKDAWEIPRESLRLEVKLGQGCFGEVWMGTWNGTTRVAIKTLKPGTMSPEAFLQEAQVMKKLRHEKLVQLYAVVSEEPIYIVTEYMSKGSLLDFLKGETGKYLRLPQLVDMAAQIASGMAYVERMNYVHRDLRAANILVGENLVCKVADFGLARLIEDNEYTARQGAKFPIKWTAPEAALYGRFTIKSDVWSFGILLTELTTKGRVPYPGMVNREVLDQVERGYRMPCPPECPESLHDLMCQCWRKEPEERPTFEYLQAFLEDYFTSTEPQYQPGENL
T10 sequence (P45983 whole entry): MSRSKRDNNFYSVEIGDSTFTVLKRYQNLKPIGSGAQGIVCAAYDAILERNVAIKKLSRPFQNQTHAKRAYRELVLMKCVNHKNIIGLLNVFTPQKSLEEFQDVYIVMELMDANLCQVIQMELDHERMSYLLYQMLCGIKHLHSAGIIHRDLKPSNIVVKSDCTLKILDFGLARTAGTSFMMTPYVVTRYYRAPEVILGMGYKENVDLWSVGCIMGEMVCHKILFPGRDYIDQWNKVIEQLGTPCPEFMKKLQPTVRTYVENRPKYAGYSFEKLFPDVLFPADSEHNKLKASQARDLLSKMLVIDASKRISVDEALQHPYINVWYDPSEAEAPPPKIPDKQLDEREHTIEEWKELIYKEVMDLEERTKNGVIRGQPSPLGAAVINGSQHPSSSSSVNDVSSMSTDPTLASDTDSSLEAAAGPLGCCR

O=C(c1c(Cl)cccc1Cl)c1c[nH]c2ncc(-c3cccnc3)cc12 [Compound P-1479]
not listed: c-Raf-1 | Jnk1 | Ret | Jnk3
≤ 10 µM: all other assays above

COc1ccc(F)c(C(=O)c2c[nH]c3ncc(-c4ccncc4)cc23)c1F [Compound P-1389, (2,6-Difluoro-3-methoxy-phenyl)-(5-pyridin-4-yl-1H-pyrrolo[2,3-b]pyridin-3-yl)-methanone]
not listed: Src | Jnk1 | Ret | Jnk3
≤ 10 µM: all other assays above

O=C(c1c(F)ccc(NS(=O)(=O)c2cccs2)c1F)c1c[nH]c2ncc(Cl)cc12 [Compound P-1267, Thiophene-2-sulfonic acid [3-(5-chloro-1H-pyrrolo[2,3-b]pyridine-3-carbonyl)-2,4-difluoro-phenyl]-amide]
not listed: c-Raf-1 | Jnk1 | Ret | Jnk3
≤ 10 µM: all other assays above

Cc1cccc(C)c1C(=O)c1c[nH]c2ncc(-c3cccnc3)cc12 [Compound P-1480]
not listed: c-Raf-1 | Jnk1 | Ret | Jnk3
≤ 10 µM: all other assays above

COc1cccc(C(=O)c2c[nH]c3ncc(-c4cccnc4)cc23)c1F [Compound P-1343, (2-Fluoro-3-methoxy-phenyl)-(5-pyridin-3-yl-1H-pyrrolo[2,3-b]pyridin-3-yl)-methanone]
not listed: Fak | c-Raf-1 | Ret | Jnk3
≤ 10 µM: all other assays above

O=C(c1c(F)ccc(NCc2ccccc2)c1F)c1c[nH]c2ncc(-c3cccnc3)cc12 [Compound P-0807, (3-Benzylamino-2,6-difluoro-phenyl)-(5-pyridin-3-yl-1H-pyrrolo[2,3-b]pyridin-3-yl)-methanone]
not listed: Fak | Kit
≤ 10 µM: all other assays above

Cc1cccc(C)c1Cc1c[nH]c2ncc(-c3cccnc3)cc12 [Compound P-1481, 3-(2,6-Dimethyl-benzyl)-5-pyridin-3-yl-1H-pyrrolo[2,3-b]pyridine]
not listed: c-Raf-1 | Jnk1 | Ret | Jnk3
≤ 10 µM: all other assays above
